In patent US8486464B2, “Herbal composition for angina pectoris, method to prepare same and uses thereof” (Tasly Pharmaceutical Group Co. Ltd., priority 2000, dated 2013):
Like-named read-outs stand apart in the source and are kept apart here.

Assays:
[1] = system: thrombosis, platelet aggregation, coagulation; conditions: single injection of 20 mg/kg; cited from earlier work
[2] = cited from earlier work
[3] = system: hemorheology; assay: Chronic pulmonary heart disease: hemorheologic markers; assay type: in vivo, human
Text: (§1) 90 cases of chronic pulmonary heart disease were selected based on the diagnosis standard set up during the National Pulmonary Heart Disease Congress in 1977. The patients were divided randomly into an Observation group and a Control group. The 60 cases in the Observation group took DSP, while the 30 cases in the Control group took persantin. Based on the objectives of: reduced inflammation, coughing cessation, dissolving of sputum, cardial and diuretic action, and cardiac function improvement, the Observation group was given 10 grains of DSP, 3 times a day. The Control group was given 50 mg of Poon Seng Ding each time, 3 times a day. Treatment lasted 1 month.

[4] = system: chronic pulmonary heart disease; assay: Chronic pulmonary heart disease, DSP vs persantin: efficacy; assay type: in vivo, human; conditions: 1 month
Text: as §1
(1) Obvious Efficacy. The symptoms such as coughing, asthma, pulmonary rales, syanosis were relieved or disappeared. The ascites and lower limbs sdema were disappeared as well. Heartbeat was under 100 times/min and cardiac function was improved above grade I-II. The urine volume per day increased by 600 ml and above, while the body weight decreased by 4%. The end-brush circulations were improved.
(3) Inefficacy. Above all markers were not improved.

[5] = system: ET, TXB2, 6-Keto-PGF1α; assay: Dog plasma ET, TXB2, 6-Keto-PGF1α; assay type: in vivo; conditions: dogs, Dan Shen Pill 2 g/kg, Diltiazen 5 mg/kg
Description: (§2) 1.1 Experimental Groups. (1) Blank control group, normal saline 3 ml/kg; (2) DSP group, 2 g natural drug/kg; (3) positive control group, Ditiazem, 5 mg/kg. All the above samples are diluted with normal saline to the same volume of 3 ml/kg and were given to the patient through the duodenum.
(§3) 1.2 Experimental Method. The dogs are anesthetized with pentobarbital sodium. Chests were opened and coronary arterioles and the central part of the dorsal lower branch separated and tied to create an acute myocardial ischemia model. ECGs were recorded and the level of myocardial ischemia (increased section ST, ST) and area of myocardial ischemia (the total increased decimal places in section ST) were calculated. The oxygen content in the coronary artery was recorded. Blood serum creatine kinase (CK), lactate dehydrogenase (LDH), ET, TXB2 and 6-Keto-PGF1 were measured. The oxygen content of the aorta and coronary vein, and blood flow volume in the coronary arteries were measured to calculate myocardial oxygen consumption. Blood oxygen content in the coronary vein was measured to calculate myocardial oxygen content (myocardial oxygen content=(blood oxygen content in arteries-blood oxygen content in coronary veins)×blood flow volume in coronary artery/100).

[6] = system: CK, LDH; assay: Dog blood serum CK and LDH; assay type: in vivo; conditions: dogs, Dan Shen Pill 2 g/kg
Description: as §2, §3

[7] = system: polychromatic RBCs; assay: Micronucleus rates in mice; assay type: in vivo; conditions: 80 mg/kg; 24 hrs
[8] = cited from earlier work; remark: listed apart in the source
[9] = system: hemicrania; assay: Hemicrania, DSP vs Flunarizine; assay type: in vivo, human; conditions: 8 weeks
Description: (2) Effects on hemicrania 58 patients with hemicrania were selected from clinics. They all qualify under International Headache Standards classifications. 10 tablets of DSP (25 mg/tablet) were given to the Treatment group, 3 times/day. 5 mg of Flunarizine was given to the control group, once a day, orally. The medication lasted 8 weeks. Treatment results and side effects were recorded every 2 weeks. No other pain-killing medications were taken within the 6 months.
Treatment standards. Controlled: Headaches disappeared with medication, and there was no reoccurrence after treatment ended; Obvious efficacy: The seriousness of headaches is reduced, duration is shortened, and onset frequency is reduced to 75% or more; Efficacy: The level of headache is reduced, and onset frequency is reduced 50%˜70%; Failure: No improvement in headaches.

[10] = system: dizziness; assay: Dizziness, DSP vs lidocaine; assay type: in vivo, human
Text: 61 patients were divided into two groups at random. 29 patients were in the Treatment group, including 22 patients with insufficient blood supply to the cerebral artery, 7 patients with Meniere Disease, 5 patients with high blood pressure, and 2 patients with coronary heart disease. 32 patients were in the control group, including 22 patients with insufficient blood supply to the cerebral artery, 10 patients with Meniere Disease, 7 patients with high blood pressure, and 4 patients with coronary heart disease. 10 tablets of DSP were given to the Treatment group, 3-5 times/day for 3-7 days. 50 mg of lidocaine was injected into the Control group, once a day for 3-7 days.
Treatment method: (1) Obvious Efficacy: Dizziness and other companion symptoms disappeared, and there was no re-occurrence for 12 hrs after observation. (2) Efficacy: The level of dizziness and other symptoms disappeared. (3) Failure: No improvement.

[11] = Diltiazen 5 mg/kg, 30 min after dosage
[12] = Diltiazen 5 mg/kg, 60 min after dosage
[13] = Diltiazen 5 mg/kg, 90 min after dosage
[14] = Diltiazen 5 mg/kg, 120 min after dosage
[15] = Diltiazen 5 mg/kg, 180 min after dosage
[16] = Diltiazen 5 mg/kg, after hypoxia before dosage
[17] = Ditiazen 5 mg/kg, 30 min after dosage
[18] = Ditiazen 5 mg/kg, 60 min after dosage
[19] = Ditiazen 5 mg/kg, 90 min after dosage
[20] = Ditiazen 5 mg/kg, 120 min after dosage
[21] = Ditiazen 5 mg/kg, 180 min after dosage
[22] = Ditiazen 5 mg/kg, after hypoxia before dosage
[23] = Insufficient blood supply to the brain

O=C(O)[C@H](O)Cc1ccc(O)c(O)c1 [Danshensu, D(+)-3,4-dihydroxyphenyl lactic acid]
duration of effect [1]: 1 h | time of peak effect [1]: 30 min

3H-Borneol [Example 3H-Borneol]
diminishing half-lifetime ([2]; oral administration): 5.3 h | half-life time ([2]; single intraveneous injection): 2.8 min

OCCN(CCO)c1nc(N2CCCCC2)c2nc(N(CCO)CCO)nc(N3CCCCC3)c2n1 [persantin]
Aggregation rate of platelet ([3]; After treatment, 1 month): 32.28 ± 20.30% | Blood viscosity ([3]; After treatment, 1 month): 3.66 ± 0.58 | Fibrinogen ([3]; After treatment, 1 month): 3.60 ± 0.23 g/L | Hematocrit ([3]; After treatment, 1 month): 0.37 ± 0.05 VOL/% | Aggregation rate of platelet ([3]; before treatment): 4.16 ± 2.32% | Blood viscosity ([3]; before treatment): 4.35 ± 0.81 | Fibrinogen ([3]; before treatment): 4.22 ± 0.34 g/L | Hematocrit ([3]; before treatment): 0.48 ± 0.05 VOL/% | Efficacy, number of cases [4]: 9 | Efficacy, rate [4]: 0.3 | Obvious efficacy, number of cases [4]: 14 | Obvious efficacy, rate [4]: 0.47 | Total efficacy rate [4]: 0.76 | Total efficacy, number of cases [4]: 23 | inefficacy, number of cases [4]: 7 | inefficacy, rate [4]: 0.23 | Total efficacy rate ([4]; 60 DSP, 30 persantin): 76%

COc1ccc([C@@H]2Sc3ccccc3N(CCN(C)C)C(=O)[C@@H]2OC(C)=O)cc1 [Diltiazen]
6-Keto-PGF1α/TXB2 ([5]; 30 min after dosage): 1.507 ± 0.505 | 6-Keto-PGF1α/TXB2, changing in percentage (before dosage = 100%) ([5]; 30 min after dosage): 148.42 ± 17.35 % | 6-Keto-PGF1α/TXB2 ([5]; 60 min after dosage): 1.501 ± 0.358 | 6-Keto-PGF1α/TXB2, changing in percentage (before dosage = 100%) ([5]; 60 min after dosage): 155.44 ± 28.97 % | 6-Keto-PGF1α/TXB2 ([5]; 90 min after dosage): 1.980 ± 0.924 | 6-Keto-PGF1α/TXB2, changing in percentage (before dosage = 100%) ([5]; 90 min after dosage): 203.82 ± 83.25 % | 6-Keto-PGF1α/TXB2 ([5]; 120 min after dosage): 1.980 ± 0.924 | 6-Keto-PGF1α/TXB2, changing in percentage (before dosage = 100%) ([5]; 120 min after dosage): 203.82 ± 83.25 % | 6-Keto-PGF1α/TXB2 ([5]; 180 min after dosage): 1.801 ± 0.596 | 6-Keto-PGF1α/TXB2, changing in percentage (before dosage = 100%) ([5]; 180 min after dosage): 198.48 ± 87.02 % | 6-Keto-PGF1α/TXB2 ([5]; after hypoxia before dosage): 143.40 ± 28.64 | 6-Keto-PGF1α/TXB2, changing in percentage ([5]; after hypoxia before dosage): 101.14 ± 17.90 % | 6-Keto-PGF1α/TXB2 ([5]; before hypoxia (normal value)): 106.40 ± 19.12 | LDH, changing in percentage (before dosage = 100%) [6, 11]: 101.14 ± 17.90 % | blood serum LDH [6, 11]: 143.40 ± 28.64 U/L | LDH, changing in percentage (before dosage = 100%) [6, 12]: 92.58 ± 15.17 % | blood serum LDH [6, 12]: 134.40 ± 46.48 U/L | LDH, changing in percentage (before dosage = 100%) [6, 13]: 93.31 ± 19.02 % | blood serum LDH [6, 13]: 153.00 ± 70.80 U/L | LDH, changing in percentage (before dosage = 100%) [6, 14]: 121.32 ± 22.12% | blood serum LDH [6, 14]: 194.60 ± 76.72 U/L | LDH, changing in percentage (before dosage = 100%) [6, 15]: 117.24 ± 26.69 % | blood serum LDH [6, 15]: 164.80 ± 49.36 U/L | LDH, changing in percentage [6, 16]: 101.14 ± 17.90 % | blood serum LDH [6, 16]: 143.40 ± 28.64 U/L | blood serum LDH ([6]; Diltiazen 5 mg/kg, before hypoxia (normal)): 106.40 ± 19.12 U/L

O=P1(N(CCCl)CCCl)NCCCO1 (stereo not shown) [CP]
Micro-rates (%) [7]: 23.0 ± 4.0 % | Micronucleus Cells [7]: 138

Cc1nc(C)c(C)nc1C.O=P(O)(O)O [TMP, tetramethylpyrazine phosphate]
Cmax ([8]; TMP 5 mg/kg ig with previous borneol 5 mg/kg): 931 ng/mL | Cmax ([8]; TMP 5 mg/kg ig without borneol): 562 ng/mL

Fc1ccc(C(c2ccc(F)cc2)N2CCN(C/C=C/c3ccccc3)CC2)cc1 [Flunarizine]
Controlled, number of cases [9]: 5 | Efficacy, number of cases [9]: 7 | Failure, number of cases [9]: 9 | Obvious efficacy, number of cases [9]: 7 | total efficacy [9]: 67.86%

COc1ccc([C@@H]2Sc3ccccc3N(CCN(C)C)C(=O)[C@@H]2OC(C)=O)cc1 [Ditiazen]
CK, changing in percentage (before dosage = 100%) [6, 17]: 97.20 ± 12.50 % | blood serum CK [6, 17]: 660.40 ± 184.88 U/L | CK, changing in percentage (before dosage = 100%) [6, 18]: 108.84 ± 20.71 % | blood serum CK [6, 18]: 737.80 ± 159.04 U/L | CK, changing in percentage (before dosage = 100%) [6, 19]: 115.31 ± 19.97 % | blood serum CK [6, 19]: 820.80 ± 289.76 U/L | CK, changing in percentage (before dosage = 100%) [6, 20]: 314.91 ± 23.35 % | blood serum CK [6, 20]: 972.40 ± 347.28 U/L | CK, changing in percentage (before dosage = 100%) [6, 21]: 179.51 ± 10.60 % | blood serum CK [6, 21]: 1238.60 ± 309.12 U/L | CK, changing in percentage [6, 22]: 219.80 ± 38.93 % | blood serum CK [6, 22]: 699.60 ± 211.52 U/L | blood serum CK ([6]; Ditiazen 5 mg/kg, before hypoxia (normal)): 316.20 ± 63.04 U/L

CCN(CC)CC(=O)Nc1c(C)cccc1C [lidocaine]
total efficacy ([10]; 3-7 days, 29 DSP, 32 lidocaine patients): 87.5% | Efficacy, cases [10, 23]: 8 | Failure, cases [10, 23]: 2 | Obvious Efficacy, cases [10, 23]: 12 | Total efficacy, % [10, 23]: 91% | Total efficacy, cases [10, 23]: 20 | Efficacy, cases ([10]; Meniere disease): 2 | Failure, cases ([10]; Meniere disease): 2 | Obvious Efficacy, cases ([10]; Meniere disease): 6 | Total efficacy, % ([10]; Meniere disease): 80% | Total efficacy, cases ([10]; Meniere disease): 8 | Efficacy, cases ([10]; Total (all dizziness patients)): 10 | Failure, cases ([10]; Total (all dizziness patients)): 4 | Obvious Efficacy, cases ([10]; Total (all dizziness patients)): 18 | Total efficacy, % ([10]; Total (all dizziness patients)): 87.5% | Total efficacy, cases ([10]; Total (all dizziness patients)): 28
